Laboratory results as given in patent publication US11873292B2, “Trans-indoline cyclopropylamine chemical compound, and method for preparation, pharmaceutical composition, and use thereof” (Shanghai Institute of Materia Medica, Chinese Academy of …, priority 2016, dated 2024).
Read-outs that look alike come from different tables or passages of the source.

Legend:
Human recombinant MAOA = Human recombinant MAOA (Homo sapiens (Human), UniProt P21397); test: MAOA in vitro activity experiment (MAO-Glo); assay type: biochemical
Human recombinant MAOA, sequence (P21397 whole entry): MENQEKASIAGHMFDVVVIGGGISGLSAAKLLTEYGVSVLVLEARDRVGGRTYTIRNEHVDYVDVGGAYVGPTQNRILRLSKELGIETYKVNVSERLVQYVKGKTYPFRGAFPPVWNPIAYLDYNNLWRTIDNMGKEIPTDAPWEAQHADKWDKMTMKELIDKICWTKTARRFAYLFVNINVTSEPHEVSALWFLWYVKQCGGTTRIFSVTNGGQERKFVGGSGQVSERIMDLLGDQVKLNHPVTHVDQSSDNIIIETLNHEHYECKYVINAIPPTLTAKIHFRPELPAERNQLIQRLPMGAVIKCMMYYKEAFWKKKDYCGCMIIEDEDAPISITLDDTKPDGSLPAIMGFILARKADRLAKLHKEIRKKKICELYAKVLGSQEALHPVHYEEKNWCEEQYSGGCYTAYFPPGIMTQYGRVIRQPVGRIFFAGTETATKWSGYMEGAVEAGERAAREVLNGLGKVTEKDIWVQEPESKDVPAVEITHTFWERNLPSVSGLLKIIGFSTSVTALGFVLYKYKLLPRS

human recombinant MAOB = human recombinant MAOB (Homo sapiens (Human), UniProt P27338); test: MAOB in vitro activity experiment (MAO-Glo); assay type: biochemical
human recombinant MAOB, sequence (P27338 whole entry): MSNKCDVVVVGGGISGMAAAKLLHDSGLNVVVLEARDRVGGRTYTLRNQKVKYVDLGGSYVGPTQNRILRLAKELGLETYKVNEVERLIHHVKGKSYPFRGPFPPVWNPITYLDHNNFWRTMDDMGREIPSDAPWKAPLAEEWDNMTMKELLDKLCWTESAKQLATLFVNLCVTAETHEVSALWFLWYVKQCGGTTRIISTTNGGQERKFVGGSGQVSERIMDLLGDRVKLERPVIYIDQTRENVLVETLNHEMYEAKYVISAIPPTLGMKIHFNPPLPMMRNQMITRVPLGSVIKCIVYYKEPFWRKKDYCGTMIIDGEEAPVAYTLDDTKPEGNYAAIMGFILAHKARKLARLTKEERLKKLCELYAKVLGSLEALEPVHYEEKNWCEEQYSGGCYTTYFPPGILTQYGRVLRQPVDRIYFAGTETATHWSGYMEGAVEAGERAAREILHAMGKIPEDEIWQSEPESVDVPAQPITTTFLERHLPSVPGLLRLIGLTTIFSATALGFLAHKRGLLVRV

[1] = system: Leukemia cell line MV4-11; test: Growth-inhibitory activity by MTS method; assay type: cell-based; conditions: Homo sapiens, MV4-11 cells
Description: MTS assay was used to detect the growth inhibitory effect of tested compounds on leukemia cell MV (4:11), the principle of which was that succinate dehydrogenase in mitochondria in living cells can reduce exogenous thiazole blue to insoluble Blue crystalline Formazan.
MATERIALS: Leukemia cell line MV4-11: pediatric acute lymphocytic leukemia, immunological double phenotype, AF4-MLL fusion t (4,11), is a cell growth inhibitory cell line of LSD1 inhibitor (Cancer cell. 2012, 17; 21(4): 473-487).
1. MV4-11 cells in the logarithmic growth phase were taken, accurately counted 16000 cells/mL, and the diluted cell solution was added to a 96-well plate at 90 μL per well.
2. Fresh medium was taken and sequentially added to a 96-well plate with cell fluid, 90 μL per well.
3. In the compound plate, the compound to be tested at a concentration of 10 mM and the positive compounds ORY-1001 and GSK2879552 were taken and subjected to a 3-fold concentration gradient dilution with DMSO, 8 points for each.
4. 2 μL of the diluted compound was separately added to a 96-well plate containing 98 μL of blank medium, and DMSO group was added with 2 μL of DMSO into 98 μL of blank medium, and mixed for use.
5. The compound homogeneously mixed with the medium was separately added to a 96-well plate in which cells were plated in triplicate, 20 μL per well, and well mixed. In the blank group, 200 μL of IMDM medium was added, and in the DMSO group, 180 μL of the cell-containing medium in DMSO diluted with the medium was added.
6. […]
7. After 10 days, MTS was added and the values were read after 2.5 h of incubation.

Compound | IC50 (Human recombinant MAOA) [µM] | IC50 (human recombinant MAOB) [µM] | IC50 ([1]; 3 D, read-out: MTS 3 D) [µM] | IC50 ([1]; 10 D, read-out: MTS 10 D) [µM]
O=S(=O)(c1ccccc1)N1CCc2cc([C@@H]3C[C@H]3NCCC3CCNCC3)ccc21 (relative stereo) [Compound A16, trans-N-(4-piperidinylethyl)-2-(1-(phenylsulfonyl)indolin-5-yl)cyclopropylamine] | > 100 | > 100 | 8.25 ± 1.7 | 1.21 ± 0.4
O=S(=O)(c1ccccc1)N1CCc2cc([C@@H]3C[C@H]3NCC3CNC3)ccc21 (relative stereo) [Compound A17, trans-N-(azetidin-3-ylmethyl)-2-(1-(phenylsulfonyl)indolin-5-yl)cyclopropylamine] | 16.2 ± 0.31 | 9.22 ± 0.98 |  | 
O=S(=O)(c1ccccc1)N1CCc2cc([C@@H]3C[C@H]3NC3CC4(CCNCC4)C3)ccc21 (relative stereo) [Compound A20, trans-N-(2-(1-(phenylsulfonyl)indolin-5-yl)cyclopropyl)-7-azaspiro[3.5]nonane-2-amine] | > 100 | > 100 |  | 
CC1(CN[C@@H]2C[C@H]2c2ccc3c(c2)CCN3S(=O)(=O)c2ccccc2)CCNCC1 (relative stereo) [Compound A21, trans-N-((4-methylpiperidin-4-yl)methyl)-2-(1-(phenylsulfonyl)indolin-5-yl)cyclopropylamine] | > 100 | > 100 |  | 
O=S(=O)(c1ccccc1)N1CCc2cc([C@@H]3C[C@H]3NCC3CCN(Cc4ccccc4)CC3)ccc21 (relative stereo) [Compound A24, trans-N-((1-benzylpiperidin-4-yl)methyl)-2-(1-(phenylsulfonyl)indolin-5-yl)cyclopropylamine] | 15.9 ± 2 | > 100 |  | 
O=S(=O)(c1ccc(-c2ccccc2)cc1)N1CCc2cc([C@@H]3C[C@H]3NCC3CCNCC3)ccc21 (relative stereo) [Compound A32, Trans-2-(1-(biphenyl-4-ylsulfonyl)indolin-5-yl)-N-(piperidin-4-ylmethyl)cyclopropylamine] | > 100 | 89.4 ± 2.05 |  | 
O=S(=O)(c1ccc2ccccc2c1)N1CCc2cc([C@@H]3C[C@H]3NCC3CCNCC3)ccc21 (relative stereo) [Compound A33, Trans-2-(1-(naphthalen-2-ylsulfonyl)indolin-5-yl)-N-(piperidin-4-ylmethyl)cyclopropylamine] | 35.5 ± 0.87 | 82 ± 1.39 |  | 
O=S(=O)(c1cccc(C(F)(F)F)c1)N1CCc2cc([C@@H]3C[C@H]3NCC3CCNCC3)ccc21 (relative stereo) [Compound A35, trans-N-(piperidin-4-ylmethyl)-2-(1-(3-(trifluoromethyl)benzenesulfonyl)indolin-5-yl)cyclopropylamine] | 49.8 ± 20.9 | 86.2 ± 18.7 |  | 
O=S(=O)(c1cccc(Cl)c1)N1CCc2cc([C@@H]3C[C@H]3NCC3CCNCC3)ccc21 (relative stereo) [Compound A38, trans-2-(1-(3-chlorobenzenesulfonyl)indolin-5-yl)-N-(piperidin-4-ylmethyl)cyclopropylamine] | 73.9 ± 1.34 | 40.9 ± 1.41 |  | 
COc1cccc(S(=O)(=O)N2CCc3cc([C@@H]4C[C@H]4NCC4CCNCC4)ccc32)c1 (relative stereo) [Compound A39, trans-2-(1-(3-methoxybenzenesulfonyl)indolin-5-yl)-N-(piperidin-4-ylmethyl)cyclopropylamine] | 38.6 ± 5.23 | > 100 |  | 
CS(=O)(=O)N1CCc2cc([C@@H]3C[C@H]3NCC3CCNCC3)ccc21 (relative stereo) [Compound A40, Trans-2-(1-(methylsulfonyl)indolin-5-yl)-N-(piperidin-4-ylmethyl)cyclopropylamine] | > 100 | > 100 |  | 
O=S(=O)(N1CCc2cc([C@@H]3C[C@H]3NCC3CCNCC3)ccc21)C(F)(F)F (relative stereo) [Compound A42, trans-N-(piperidin-4-ylmethyl)-2-(1-(trifluoromethanesulfonyl)indolin-5-yl)cyclopropylamine] | 86.6 ± 1.05 | 3.14 ± 0.15 |  | 
O=S(=O)(C1CCCCC1)N1CCc2cc([C@@H]3C[C@H]3NCC3CCNCC3)ccc21 (relative stereo) [Compound A43, trans-2-(1-(cyclohexylsulfonyl)indolin-5-yl)-N-(piperidin-4-ylmethyl)cyclopropylamine] | > 100 | > 100 |  | 
O=C(c1ccccc1)N1CCc2cc([C@@H]3C[C@H]3NCC3CCNCC3)ccc21 (relative stereo) [Compound A45, trans-phenyl (5-(2-(piperidin-4-ylmethylamino)cyclopropyl)indolin-1-yl)methanone] | > 100 | 32.9 ± 1.24 | > 20 | 4.14 ± 3.47
O=C(Cc1ccccc1)N1CCc2cc([C@@H]3C[C@H]3NCC3CCNCC3)ccc21 (relative stereo) [Compound A49, Trans-2-phenyl-1-(5-(2-(piperidin-4-ylmethylamino)cyclopropyl)indolin-1-yl)ethanone] | > 100 | > 100 | > 20 | 3.23 ± 3.64
CCC(=O)N1CCc2cc([C@@H]3C[C@H]3NCC3CCNCC3)ccc21 (relative stereo) [Compound A53, Trans-1-(5-(2-(piperidin-4-ylmethylamino)cyclopropyl)indolin-1-yl)propan-1-one] | > 100 | > 100 |  | 
CCCC(=O)N1CCc2cc([C@@H]3C[C@H]3NCC3CCNCC3)ccc21 (relative stereo) [Compound A54, Trans-1-(5-(2-(piperidin-4-ylmethylamino)cyclopropyl)indolin-1-yl)butan-1-one] | > 100 | > 100 |  | 
CCCCC(=O)N1CCc2cc([C@@H]3C[C@H]3NCC3CCNCC3)ccc21 (relative stereo) [Compound A55, Trans-1-(5-(2-(piperidin-4-ylmethylamino)cyclopropyl)indolin-1-yl)pentan-1-one] | > 100 | > 100 |  | 
CC(C)(C)C(=O)N1CCc2cc([C@@H]3C[C@H]3NCC3CCNCC3)ccc21 (relative stereo) [Compound A58, Trans-2,2-dimethyl-1-(5-(2-(piperidin-4-ylmethylamino)cyclopropyl)indolin-1-yl)propan-1-one] | > 100 | 70.7 ± 12.6 | > 20 | 1.23 ± 1.13
O=S(=O)(c1ccccc1)N1CCc2cc(C3CC3NCc3c[nH]c4ccccc34)ccc21 (centres unmarked) [Compound A8] |  |  | 1.25 ± 0.51 | 0.6 ± 0.13
O=S(=O)(c1ccccc1)N1CCc2cc(C3CC3NCC3CCNCC3)ccc21 (stereo not drawn) [Compound A14, trans-N-(4-piperidinylmethylene)-2-(1-(phenylsulfonyl)indolin-5-yl)cyclopropylamine] |  |  | 7.91 ± 1.61 | 1.36 ± 0.92
NC1CCC(CNC2CC2c2ccc3c(c2)CCN3S(=O)(=O)c2ccccc2)CC1 (stereo not drawn) [Compound A18, trans-4-((2-(1-(phenylsulfonyl)indolin-5-yl)cyclopropylamino)methyl)cyclohexylamine] | 96.3 ± 2.05 |  |  | 
NC1CCC(NC2CC2c2ccc3c(c2)CCN3S(=O)(=O)c2ccccc2)CC1 (stereo not drawn) [Compound A19, trans-N1-(2-(1-(phenylsulfonyl)indolin-5-yl)cyclopropyl)cyclohexane-1,4-diamine] |  |  | 8.55 ± 1.84 | 1.16 ± 0.26
